Assay results published in patent US20220387608A1, “ADRENOMEDULLIN-ANALOGUES FOR LONG-TERM STABILIZATION AND THEIR USE” (Bayer Aktiengesellschaft, priority 2019, published 2022).
Positions of bridges follow the written chain, without caps; N, C: chain ends. Non-standard residues stand in square brackets, D forms with d. Residues, ends and D or L forms follow the SMILES beside them. *: point of attachment. C18 diacid = O=C(O)CCCCCCCCCCCCCCCCC(=O)*; AEEEA = NCCOCCOCCOCC(=O)O; PEG3 = NCCOCCOCCOCCC(=O)O

Target: T1, AM1R (Homo sapiens, UniProt O60895+Q16602)
T1 construct: EYFP; ECFP; expressed in transfected cells; host or cells: HEK-293 (transient co-transfection)
Assay: Activity determination in vitro: cAMP/CRE-luciferase reporter assay in HEK293 cells transiently co-transfected with CLR and RAMP2
Type: cell-based
Conditions: for Emax: HEK293, normalized to [G14]ADM(14-52); for EC50: HEK293 with CLR/RAMP2, CRE-luciferase, 3 h stimulation
Method: (1a) Activity Determination of Adrenomedullin Analogues in vitro
Cell Culture HEK-293 cells (human embryonic kidney cells) were cultured in Ham's F-12/DMEM (1/1; v/v) containing 15% FCS under humidified atmosphere at 37° C. and 5% CO2 in 75 cm^2 cell culture flasks.
Cells were cultured in 75 cm^2 flasks to 70-80% confluency. 45 μl Metafectene® Pro was diluted in 900 ρl Ham's F-12/DMEM (1/1; v/v) and incubated for 20 min at room temperature. 9 μg plasmid containing DNA of CLR fused to EYFP and 3 μg plasmid containing DNA of RAMP2 fused to ECFP were dissolved in 900 μl Ham's F-12/DMEM (1/1; v/v). The plasmid solution was mixed with the Metafectene® Pro solution and incubated for 25 min at room temperature. Medium was removed from the cells and replaced by 6 m1 Ham's F-12/DMEM (1/1; v/v) containing 15% FCS. After addition of transfection solution the cells were incubated for 3 h under humidified atmosphere at 37° C. and 5% CO2. For the second transfection 45 μl Metafectene® Pro was diluted in 900 μl Ham's F-12/DMEM (1/1; v/v) and incubated for 20 min at room temperature. 12 μg of pGL4.29[Luc2P/CRE/Hygro] plasmid containing DNA for the luciferase reporter gene luc2P (with CRE promotor region) were dissolved in 900 μl Ham's F-12/DMEM (1/1; v/v). The plasmid solution was mixed with the Metafectene® Pro solution and incubated for 25 min at room temperature. Medium was removed from the cells and replaced by 6 m1 Ham's F-12/DMEM (1/1; v/v) containing 15% FCS. After addition of transfection solution, the cells were incubated under humidified atmosphere at 37° C. and 5% CO2 over night.
For coating of 96-well-plates, 50 μl of a poly-D-lysine solution in DPBS (0.1 mg/ml) were pipetted in each well and incubated for 40 min. After removal of poly-D-lysine, each well was washed with 50 μl DPBS. Transiently transfected cells were detached from the cell culture flask by removal of the medium, 2-fold washing with 5 m1 DPBS and resuspending in 40 m1 Ham's F-12/DMEM (1/1; v/v) containing 15% FCS. 90,000 to 120,000 cells in 150 μl Ham's F-12/DMEM (1/1; v/v) containing 15% FCS were seeded per well and the plates were incubated under humidified atmosphere at 37° C. and 5% CO2 over night.
For each ligand, a serial dilution with eight different concentrations was prepared using Ham's F^12/DMEM (1/1; v/v). Before stimulation, the medium on the cells was replaced by 100 μl Ham's F^12/DMEM (1/1; v/v) and the plates were incubated for 1 h under humidified atmosphere at 37° C. and 5% CO2. For stimulation, the medium was removed and the cells were incubated for 3 h in 80 μl of ligand-solution under humidified atmosphere at 37° C. and 5% CO2. In addition 80 μl of a 5 μM forskolin solution in Ham's F-12/DMEM (1/1; v/v) was used as a positive control and 80 μl of Ham's F-12/DMEM (1/1; v/v) as a negative control. Each concentration and the controls were tested as triplicates.
After 3 h of stimulation, the solutions were removed and the cells were washed with 50 μl of Ham's F-12/DMEM (1/1; v/v) perwell. After 10 m incubation in 30 μl of Ham's F-12/DMEM (1/1; v/v) at room temperature, 30 μl of luciferase-solution (ONE-Glo™ Luciferase Assay System) was added and the luminescence was directly measured using an Infinite M200 (Tecan).
Data analysis of the luminescence measurement was carried out with GraphPad Prism 5. Therefore, the measured luminescence values of each plate were first corrected on the base of the respective average of forskolin stimulation. Afterwards they were normalized to [G14]ADM(14-52), which was used as standard peptide in every assay. After correction and normalization, data was analyzed using non-linear regression giving dose-response curves for each tested ligand.

T1 sequence (Q16602 23-461): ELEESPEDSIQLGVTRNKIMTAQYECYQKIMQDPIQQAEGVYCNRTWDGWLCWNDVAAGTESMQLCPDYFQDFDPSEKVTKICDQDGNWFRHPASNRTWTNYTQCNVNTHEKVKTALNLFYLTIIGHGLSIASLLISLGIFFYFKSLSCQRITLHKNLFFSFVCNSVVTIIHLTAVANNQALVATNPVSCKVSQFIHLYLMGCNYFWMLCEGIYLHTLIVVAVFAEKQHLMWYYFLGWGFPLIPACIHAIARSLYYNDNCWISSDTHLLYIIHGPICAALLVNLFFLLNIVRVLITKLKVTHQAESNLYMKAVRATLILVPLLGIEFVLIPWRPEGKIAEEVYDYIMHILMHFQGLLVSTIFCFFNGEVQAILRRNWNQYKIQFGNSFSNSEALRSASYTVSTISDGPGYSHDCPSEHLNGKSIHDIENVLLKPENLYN
T1 sequence (O60895 43-175): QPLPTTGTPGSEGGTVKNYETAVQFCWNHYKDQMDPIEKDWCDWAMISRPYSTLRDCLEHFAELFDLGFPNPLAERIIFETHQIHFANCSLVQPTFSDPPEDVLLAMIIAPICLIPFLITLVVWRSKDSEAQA

| Emax [%] | EC50 [nM] | SMILES |
| --- | --- | --- |
| 93 ± 2 | 16 | CC[C@H](C)[C@H](NC(=O)[C@H](CCC(N)=O)NC(=O)[C@H](Cc1c[nH]cn1)NC(=O)[C@H](C)NC(=O)[C@H](CC(C)C)NC(=O)[C@H](CCCCN)NC(=O)[C@H](CCC(N)=O)NC(=O)[C@@H](NC(=O)[C@@H](NC(=O)[C@@H]1CSSC[C@H](NC(=O)CNC(=O)CN)C(=O)N[C@@H](CCCNC(=N)N)C(=O)N[C@@H](Cc2ccccc2)C(=O)NCC(=O)N[C@@H]([C@@H](C)O)C(=O)N1)[C@@H](C)O)C(C)C)C(=O)N[C@@H](Cc1ccc(O)cc1)C(=O)N[C@@H](CCC(N)=O)C(=O)N[C@@H](Cc1ccccc1)C(=O)N[C@H](C(=O)N[C@@H](CC(=O)O)C(=O)N[C@@H](CCCCN)C(=O)N[C@@H](CC(=O)O)C(=O)N[C@@H](CCCCN)C(=O)N[C@@H](CC(=O)O)C(=O)N[C@@H](CC(N)=O)C(=O)N[C@H](C(=O)N[C@@H](C)C(=O)N1CCC[C@H]1C(=O)N[C@H]1CCCCNC(=O)CC[C@@H](C(=O)N2CCC[C@H]2C(=O)N[C@@H](CCC(N)=O)C(=O)NCC(=O)N[C@@H](Cc2ccc(O)cc2)C(N)=O)NC(=O)[C@H]([C@@H](C)CC)NC(=O)[C@H](CCCCN)NC(=O)[C@H](CO)NC1=O)C(C)C)[C@@H](C)O [Example 3, ((4R,7S,13S,16S,19R)-19-(2-(2-aminoacetamido)acetamido)-13-benzyl-16-(3-guanidinopropyl)-7-((R)-1-hydroxyethyl)-6,9,12,15,18-pentaoxo-1,2-dithia-5,8,11,14,17-pentaazacycloicosane-4-carbonyl)-L-threonyl-ADM(23-43)-((2S,5S,8S,11S,20S)-5-(4-aminobutyl)-20-(λ^2-azaneyl)-8-((S)-sec-butyl)-2-(hydroxymethyl)-3,6,9,14,21-pentaoxo-1,4,7,10,15-pentaazacyclohenicosane-11-carbonyl)-L-prolyl-ADM(50-52)] (H-GGCRFGTCTVQKLAHQIYQFTDKDKDNVAPKSKIEPQGY-NH2; disulfide 3-8; lactam 31-35) |
| 94 ± 7 | 2.6 | CC[C@H](C)[C@H](NC(=O)[C@H](CCC(N)=O)NC(=O)[C@H](Cc1c[nH]cn1)NC(=O)[C@H](C)NC(=O)[C@H](CC(C)C)NC(=O)[C@H](CCCCN)NC(=O)[C@H](CCC(N)=O)NC(=O)[C@@H](NC(=O)[C@@H](NC(=O)[C@@H]1CSSC[C@H](NC(=O)CNC(=O)[C@@H](N)CCCCNC(=O)CCCCCCCCCCCCCCCCC(=O)O)C(=O)N[C@@H](CCCNC(=N)N)C(=O)N[C@@H](Cc2ccccc2)C(=O)NCC(=O)N[C@@H]([C@@H](C)O)C(=O)N1)[C@@H](C)O)C(C)C)C(=O)N[C@@H](Cc1ccc(O)cc1)C(=O)N[C@@H](CCC(N)=O)C(=O)N[C@@H](Cc1ccccc1)C(=O)N[C@H](C(=O)N[C@@H](CC(=O)O)C(=O)N[C@@H](CCCCN)C(=O)N[C@@H](CC(=O)O)C(=O)N[C@@H](CCCCN)C(=O)N[C@@H](CC(=O)O)C(=O)N[C@@H](CC(N)=O)C(=O)N[C@H](C(=O)N[C@@H](C)C(=O)N1CCC[C@H]1C(=O)N[C@H]1CCCCNC(=O)C[C@@H](C(=O)N2CCC[C@H]2C(=O)N[C@@H](CCC(N)=O)C(=O)NCC(=O)N[C@@H](Cc2ccc(O)cc2)C(N)=O)NC(=O)[C@H]([C@@H](C)CC)NC(=O)[C@H](CCCCN)NC(=O)[C@H](CO)NC1=O)C(C)C)[C@@H](C)O [Example 13] (H-K(C18 diacid)GCRFGTCTVQKLAHQIYQFTDKDKDNVAPKSKIDPQGY-NH2; disulfide 3-8; lactam 31-35) |
| 95 ± 7 | 21 | CC[C@H](C)[C@H](NC(=O)[C@H](CCC(N)=O)NC(=O)[C@H](Cc1c[nH]cn1)NC(=O)[C@H](C)NC(=O)[C@H](CC(C)C)NC(=O)[C@H](CCCCN)NC(=O)[C@H](CCC(N)=O)NC(=O)[C@@H](NC(=O)[C@@H](NC(=O)[C@@H]1CSSC[C@H](NC(=O)CNC(=O)CN)C(=O)N[C@@H](CCCNC(=N)N)C(=O)N[C@@H](Cc2ccccc2)C(=O)NCC(=O)N[C@@H]([C@@H](C)O)C(=O)N1)[C@@H](C)O)C(C)C)C(=O)N[C@@H](Cc1ccc(O)cc1)C(=O)N[C@@H](CCC(N)=O)C(=O)N[C@@H](Cc1ccccc1)C(=O)N[C@H](C(=O)NCCOCCOCCOCC(=O)N[C@@H](CC(=O)O)C(=O)N[C@@H](CC(N)=O)C(=O)N[C@H](C(=O)N[C@@H](C)C(=O)N1CCC[C@H]1C(=O)N[C@@H](CCCNC(=N)N)C(=O)N[C@@H](CO)C(=O)N[C@@H](CCCCN)C(=O)N[C@H](C(=O)N[C@@H](CO)C(=O)N1CCC[C@H]1C(=O)N[C@@H](CCC(N)=O)C(=O)NCC(=O)N[C@@H](Cc1ccc(O)cc1)C(N)=O)[C@@H](C)CC)C(C)C)[C@@H](C)O [Example 6, ((4R,7S,13S,16S,19R)-19-(2-(2-aminoacetamido)acetamido)-13-benzyl-16-(3-guanidinopropyl)-7-((R)-1-hydroxyethyl)-6,9,12,15,18-pentaoxo-1,2-dithia-5,8,11,14,17-pentaazacycloicosane-4-carbonyl)-L-threonyl-ADM(23-34)-(2-(2-(2-(2-(k2-azaneyl)ethoxy)ethoxy)ethoxy)acetyl)-L-aspartyl-ADM(40-52)] (H-GGCRFGTCTVQKLAHQIYQFT[AEEEA]DNVAPRSKISPQGY-NH2; disulfide 3-8) |
| 103 ± 4 | 13 | CC[C@H](C)[C@H](NC(=O)[C@H](CCC(N)=O)NC(=O)[C@H](Cc1c[nH]cn1)NC(=O)[C@H](C)NC(=O)[C@H](CC(C)C)NC(=O)[C@H](CCCCN)NC(=O)[C@H](CCC(N)=O)NC(=O)[C@@H](NC(=O)[C@@H](NC(=O)[C@@H]1CSSC[C@H](NC(=O)CNC(=O)CN)C(=O)N[C@@H](CCCNC(=N)N)C(=O)N[C@@H](Cc2ccccc2)C(=O)NCC(=O)N[C@@H]([C@@H](C)O)C(=O)N1)[C@@H](C)O)C(C)C)C(=O)N[C@@H](Cc1ccc(O)cc1)C(=O)N[C@@H](CCC(N)=O)C(=O)N[C@@H](Cc1ccccc1)C(=O)N[C@H](C(=O)NCCOCCOCCOCCC(=O)N[C@@H](CC(=O)O)C(=O)N[C@@H](CC(N)=O)C(=O)N[C@H](C(=O)N[C@@H](C)C(=O)N1CCC[C@H]1C(=O)N[C@@H](CCCNC(=N)N)C(=O)N[C@@H](CO)C(=O)N[C@@H](CCCCN)C(=O)N[C@H](C(=O)N[C@@H](CO)C(=O)N1CCC[C@H]1C(=O)N[C@@H](CCC(N)=O)C(=O)NCC(=O)N[C@@H](Cc1ccc(O)cc1)C(N)=O)[C@@H](C)CC)C(C)C)[C@@H](C)O [Example 7, ((4R,7S,13S,16S,19R)-19-(2-(2-aminoacetamido)acetamido)-13-benzyl-16-(3-guanidinopropyl)-7-((R)-1-hydroxyethyl)-6,9,12,15,18-pentaoxo-1,2-dithia-5,8,11,14,17-pentaazacycloicosane-4-carbonyl)-L-threonyl-ADM(23-34)-(3-(2-(2-(2-(λ^2-azaneyl)ethoxy)ethoxy)ethoxy)propanoyl)-L-aspartyl-ADM(40-52)] (H-GGCRFGTCTVQKLAHQIYQFT[PEG3]DNVAPRSKISPQGY-NH2; disulfide 3-8) |
